The results in this text go back to ChEMBL document CHEMBL1131916, “Novel series of O-substituted 8-quinolines and 4-benzothiazoles as potent antagonists of the bradykinin B2 receptors” (Bioorg Med Chem Lett, 1999).

In test [1] the target is T1, B2 bradykinin receptor (Cavia porcellus, UniProt O70526).
T1 sequence (O70526 whole entry): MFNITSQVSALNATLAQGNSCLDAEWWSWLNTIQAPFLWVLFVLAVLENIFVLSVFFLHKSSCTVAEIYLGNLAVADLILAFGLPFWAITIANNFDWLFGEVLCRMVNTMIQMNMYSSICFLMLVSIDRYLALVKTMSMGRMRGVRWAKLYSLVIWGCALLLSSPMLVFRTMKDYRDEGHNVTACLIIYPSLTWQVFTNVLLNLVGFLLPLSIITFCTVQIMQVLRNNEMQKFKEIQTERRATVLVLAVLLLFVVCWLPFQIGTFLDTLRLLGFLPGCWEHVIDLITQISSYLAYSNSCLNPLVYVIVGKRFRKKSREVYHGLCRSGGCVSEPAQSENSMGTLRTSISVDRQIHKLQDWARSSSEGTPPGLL
The experiment in a line: Inhibition of specific binding of [3H]BK to bradykinin B2 receptors of guinea pig ileum (GPI). In kind it is tissue-based.

In test [2] the test system is B2 bradykinin receptor, Oryctolagus cuniculus. As to the kind of experiment: % Inhibition of BK-induced (4x10E-8M) contraction of rabbit jugular vein (RJV) at 10E-5 M concentration.
The target in test [3] is T1, B2 bradykinin receptor. As to the kind of experiment: Inhibition of BK-induced (4x10E-8M) contraction of isolated guinea pig ileum (GPI). In kind it is functional, tissue-based.
Test [4] is filed under the species Oryctolagus cuniculus. The experiment in a line: Compound was tested for the efficacy in the inhibition of BK-induced (4x10E-8M) contraction of rabbit jugular vein (RJV). In kind it is functional.
The species entered for test [5] is Oryctolagus cuniculus. The experiment in a line: Compound was tested for the percent inhibition of BK-induced (4x10E-8M) contraction of rabbit jugular vein (RJV) at 10E-6 M concentration. The test is classed as functional.

One may read the IC50 as the midpoint of a concentration-inhibition curve. A higher IC50 goes with a need for much substance. One may read the Ki as a dissociation constant, usually derived from enzyme kinetics or from competition with a known ligand. Higher therefore signals a looser hold on the target. Broadly, the inhibition is how much of the control response was suppressed. At B2 bradykinin receptor [1], `Cc1ccc2cccc(OCc3c(C)ccc(N(C)C(=O)CNC(=O)/C=C/c4ccc(C(F)(F)F)cc4)c3C)c2n1` came in with an IC50 of 11.8 nM and a Ki of 1.3 nM. Also, the inhibition in test [2] is 81%.
As usually defined, the EC50 is the concentration that produces a half-maximal response. `COC(=O)CCCCC(=O)NCC(=O)N(C)c1ccc(OC)c(COc2cccc3ccc(C)nc23)c1SC`: at B2 bradykinin receptor [3], it took 480 nM to reach a half-maximal effect (EC50). Also, on B2 bradykinin receptor [1], the IC50 worked out at 47.2 nM. In test [2], this compound had an inhibition of 55%.
As to `COc1ccc(/C=C/C(=O)NCC(=O)N(C)c2ccc(SC)c(COc3cccc4ccc(C)nc34)c2SC)cc1`, the EC50 on B2 bradykinin receptor [3] stood at 660 nM; in the test filed under Oryctolagus cuniculus [4], 8700 nM. The compound further had a 50% inhibitory concentration (IC50) on B2 bradykinin receptor [1] of 56.9 nM. For the same compound, on B2 bradykinin receptor [1], affinity was put at a Ki of 6.3 nM.
Turning to `Cc1ccc2cccc(OCc3c(Cl)ccc(N(C)C(=O)CNC(=O)NCCCCN)c3C#N)c2n1`, at B2 bradykinin receptor [3], the EC50 came out at 350 nM. The same compound yielded an IC50 at B2 bradykinin receptor [1] of 0.9 nM.
Regarding `Cc1ccc(/C=C/C(=O)NCC(=O)N(C)c2ccc(Cl)c(COc3cccc4sc(-c5ccccc5)nc34)c2Cl)cc1`, a half-maximal response on B2 bradykinin receptor [3] (EC50) required 20000 nM. Also, at B2 bradykinin receptor [1], the IC50 turned out to be 11000 nM and the inhibition constant (Ki) was determined as 1300 nM. In test [2], this compound had an inhibition of 15%.
Turning to `COc1cccc(/C=C/C(=O)NCC(=O)N(C)c2ccc(Cl)c(COc3cccc4sc(C)nc34)c2Cl)c1`, the values for the EC50 on B2 bradykinin receptor [3] and in the test listed under Oryctolagus cuniculus [4] were 54 nM and 180 nM, respectively. The compound further yielded an IC50 on B2 bradykinin receptor [1] of 10.3 nM. The Ki at B2 bradykinin receptor [1] was found to be 1.3 nM.
At B2 bradykinin receptor [1], `COc1ccc(N(C)C(=O)CNC(=O)/C=C/c2cccc(C)c2)c(OC)c1COc1cccc2ccc(C)nc12` registered an IC50 of 81.3 nM and an inhibition constant (Ki) of 9.2 nM. The inhibition in test [2] was 68%.
In turn, `CCCOc1c(N(C)C(=O)CNC(=O)/C=C/c2ccc(C(F)(F)F)cc2)ccc(OC)c1COc1cccc2ccc(C)nc12` came in with a concentration giving a half-maximal response (EC50) at B2 bradykinin receptor [3] of 220 nM. At B2 bradykinin receptor [1], this compound showed a 50% inhibitory concentration (IC50) of 32.9 nM and a Ki of 3.9 nM. Also, in test [2], the inhibition is 82%.
For `Cc1ccc(/C=C/C(=O)NCC(=O)N(C)c2ccc(Cl)c(COc3cccc4scnc34)c2Cl)cc1` the same measures were 1300 nM, 1350 nM, 160 nM and 17%.
`COc1ccc(N(C)C(=O)CNC(=O)/C=C/c2ccc(C(F)(F)F)cc2)c(Cl)c1COc1cccc2ccc(C)nc12`: the figures for the EC50 on B2 bradykinin receptor [3] and in the test filed under Oryctolagus cuniculus [4] were 130 nM and 260 nM, respectively. Besides, on B2 bradykinin receptor [1], the IC50 worked out at 11.5 nM. Also, the affinity on B2 bradykinin receptor [1], expressed as Ki, was 1.3 nM.
Turning to `COc1ccc(N(C)C(=O)CNC(=O)/C=C/c2ccc(NC(C)=O)nc2)c(SC)c1COc1cccc2ccc(C)nc12`, the EC50 on B2 bradykinin receptor [3] worked out at 59 nM. On B2 bradykinin receptor [1], this compound showed an IC50 of 5.2 nM and a Ki of 0.6 nM. In test [2], this compound showed an inhibition of 95%.
`C=C/C=C/C(=O)NCC(=O)N(C)c1ccc(Cl)c(COc2cccc3sc(C)nc23)c1Cl` came in with an EC50 on B2 bradykinin receptor [3] of 260 nM. The same compound showed an EC50 in the test filed under Oryctolagus cuniculus [4] of 5200 nM. On B2 bradykinin receptor [1], this compound yielded a half-inhibitory concentration (IC50) of 26.2 nM and an inhibition constant (Ki) of 3.1 nM.
At B2 bradykinin receptor [3], `COc1c(N(C)C(=O)CNC(=O)/C=C/c2ccc(C(F)(F)F)cc2)ccc(Cl)c1COc1cccc2ccc(C)nc12` gave an EC50 of 55 nM. Further, in the test listed under Oryctolagus cuniculus [4], the EC50 amounted to 28 nM. At B2 bradykinin receptor [1], this compound yielded an IC50 of 21.9 nM and an inhibition constant Ki of 2.5 nM.
As for `COc1cccc(/C=C/C(=O)NCC(=O)N(C)c2ccc(Cl)c(COc3cccc4ccc(C)nc34)c2C#N)c1`, the EC50 at B2 bradykinin receptor [3] came out at 4.1 nM. On B2 bradykinin receptor [1], the IC50 is 0.7 nM and the Ki was 0.1 nM. Further, the inhibition in test [2] stood at 78%.
For orientation: Inhibition means the drop in the measured response relative to a control, in per cent. High values mean strong suppression, low ones little suppression. As to `COc1c(N(C)C(=O)CNC(=O)/C=C/c2ccc(C(F)(F)F)cc2)ccc(SC)c1COc1cccc2ccc(C)nc12`, the half-maximal effective concentration (EC50) on B2 bradykinin receptor [3] was found to be 1100 nM. The same compound yielded an Inhibition in the test listed under Oryctolagus cuniculus [5] of 41%. Also, at B2 bradykinin receptor [1], the 50% inhibitory concentration (IC50) amounted to 393 nM and the affinity corresponds to a Ki of 45.4 nM.
For `Cc1ccc2cccc(OCc3c(Cl)ccc(N(C)C(=O)CNC(=O)/C=C/c4ccc(C(F)(F)F)cc4)c3C#N)c2n1`, the response on B2 bradykinin receptor [3] was half-maximal at 56 nM (EC50). Also, at B2 bradykinin receptor [1], the IC50 came out at 1.2 nM and the Ki came to 0.3 nM. In addition, in test [2], the inhibition was determined as 82%.
On to `CCNC(=O)NCC(=O)N(C)c1ccc(OC)c(COc2cccc3ccc(C)nc23)c1C#N`, for which a half-maximal response at B2 bradykinin receptor [3] (EC50) required 450 nM. The IC50 at B2 bradykinin receptor [1] is 53.8 nM. The compound also registered an inhibition in test [2] of 59%.
Take `Cc1nc2c(OCc3c(Cl)ccc(N(C)C(=O)CNC(=O)OCc4ccccc4)c3Cl)cccc2s1`: on B2 bradykinin receptor [1], the IC50 was determined as 77.8 nM and the affinity corresponds to a Ki of 9.1 nM.
The corresponding values for `Cc1nc2c(OCc3c(Cl)ccc(N(C)C(=O)CNC(=O)/C=C/c4ccco4)c3Cl)cccc2s1` are 29.8 nM and 3.4 nM.
`CCNC(=O)NCC(=O)N(C)c1ccc(Cl)c(COc2cccc3ccc(C)nc23)c1C#N` showed an EC50 on B2 bradykinin receptor [3] of 290 nM. The same compound yielded an IC50 at B2 bradykinin receptor [1] of 64.8 nM.
`Cc1nc2c(OCc3c(Cl)ccc(N(C)C(=O)CNC(=O)/C=C/c4ccc(C(F)(F)F)cc4)c3Cl)cccc2s1` returned an EC50 at B2 bradykinin receptor [3] of 100 nM. In the test filed under Oryctolagus cuniculus [4], the EC50 is 76 nM. On B2 bradykinin receptor [1], this compound had an IC50 of 23 nM and a Ki of 2.8 nM.
On B2 bradykinin receptor [3], `Cc1ccc2cccc(OCc3c(Cl)ccc(N(C)C(=O)CNC(=O)NCCCC(=O)O)c3C#N)c2n1` registered a concentration giving a half-maximal response (EC50) of 400 nM. At B2 bradykinin receptor [1], this compound displayed an IC50 of 25.7 nM and a Ki of 2.9 nM.
As for `Cc1ccc(/C=C/C(=O)NCC(=O)N(C)c2ccc(Cl)c(COc3cccc4sc(C)nc34)c2Cl)cc1`, the EC50 on B2 bradykinin receptor [3] was 23 nM. Also, the EC50 in the test filed under Oryctolagus cuniculus [4] worked out at 66 nM. Further, on B2 bradykinin receptor [1], the IC50 stood at 14.2 nM and the inhibition constant (Ki) worked out at 1.8 nM.
